Source: ChEMBL document CHEMBL1201862, “PubChem BioAssay data set” (2004)
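96-well plates; 48 h exposure; 5 concentrations. Endpoints by linear interpolation between flanking doses. Not reached: highest tested concentration assigned. Abbreviation: GI50, concentration required for 50% inhibition of growth.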 The source made the active and inactive calls. Rule as the data show it: active = GI50 up to about 1.1 µM and inactive = higher.

Tests used:
Test in all cases: DTP human tumour cell line panel, 48 h
UACC-257 = test system: UACC-257
NCI-H522 = test system: NCI-H522
SF-295 = test system: SF-295
MDA-MB-231 = test system: MDA-MB-231
RPMI-8226 = test system: RPMI-8226
SNB-75 = test system: SNB-75
SW-620 = test system: SW-620
MDA-MB-435 = test system: MDA-MB-435
EKVX = test system: EKVX
CAKI-1 = test system: CAKI-1
T47D = test system: T47D
KM12 = test system: KM12
MOLT-4 = test system: MOLT-4
UO-31 = test system: UO-31
SNB-19 = test system: SNB-19
ACHN = test system: ACHN
HOP-92 = test system: HOP-92
RXF 393 = test system: RXF 393
MCF7 = test system: MCF7
SN12C = test system: SN12C

SMILES	GI50 (UACC-257)	GI50 (NCI-H522)	GI50 (SF-295)	GI50 (MDA-MB-231)	GI50 (RPMI-8226)	GI50 (SNB-75)	GI50 (SW-620)	GI50 (MDA-MB-435)	GI50 (EKVX)	GI50 (CAKI-1)	GI50 (T47D)	GI50 (KM12)	GI50 (MOLT-4)	GI50 (UO-31)	GI50 (SNB-19)	GI50 (ACHN)	GI50 (HOP-92)	GI50 (RXF 393)	GI50 (MCF7)	GI50 (SN12C)
N#Cc1nc(C2CCC2)oc1N	> 100 µM (inactive)	> 100 µM (inactive)	> 100 µM (inactive)	> 100 µM (inactive)	> 100 µM (inactive)	> 100 µM (inactive)	> 100 µM (inactive)	> 100 µM (inactive)	> 100 µM (inactive)	> 100 µM (inactive)	> 100 µM (inactive)	> 100 µM (inactive)	> 100 µM (inactive)	> 100 µM (inactive)	> 100 µM (inactive)	> 100 µM (inactive)	> 100 µM (inactive)	> 100 µM (inactive)	> 100 µM (inactive)	> 100 µM (inactive)
O=[N+]([O-])C1(CO)COC2(OC1)c1ccccc1-c1ccccc12	79.8 µM (inactive)	20 µM (inactive)	> 100 µM (inactive)	> 100 µM (inactive)	23.8 µM (inactive)	> 100 µM (inactive)	21.6 µM (inactive)	> 100 µM (inactive)	> 100 µM (inactive)	> 100 µM (inactive)	28.7 µM (inactive)	> 100 µM (inactive)	53.2 µM (inactive)	> 100 µM (inactive)	> 100 µM (inactive)	> 81.3 µM (inactive)	> 71.1 µM (inactive)	> 55.2 µM (inactive)	48 µM (inactive)	70.1 µM (inactive)
N#C/C(=C\n1ccc(=O)[nH]c1=S)C(N)=O	> 100 µM (inactive)	> 100 µM (inactive)	> 100 µM (inactive)	> 100 µM (inactive)	> 100 µM (inactive)	> 100 µM (inactive)	> 100 µM (inactive)	> 100 µM (inactive)	> 100 µM (inactive)	> 100 µM (inactive)	> 100 µM (inactive)	> 100 µM (inactive)	> 100 µM (inactive)	> 100 µM (inactive)	> 100 µM (inactive)	> 100 µM (inactive)	73.6 µM (inactive)	> 100 µM (inactive)	> 100 µM (inactive)	> 100 µM (inactive)
Fc1ccc(C(OCCN2CCC3CCC(C2)N3C/C=C/c2cccs2)c2ccc(F)cc2)cc1 (configuration not stated)	3.66 µM (inactive)	5.02 µM (inactive)	10.5 µM (inactive)	9.31 µM (inactive)	0.0133 µM (active)	14.7 µM (inactive)	5.98 µM (inactive)	6.98 µM (inactive)	4.41 µM (inactive)	10.2 µM (inactive)	3.56 µM (inactive)	4.44 µM (inactive)	1.21 µM (inactive)	12 µM (inactive)	13.9 µM (inactive)	11.8 µM (inactive)	6.25 µM (inactive)	3.77 µM (inactive)	7.69 µM (inactive)	5.69 µM (inactive)
O=[N+]([O-])c1cccc2nc3ccccc3c(NCCN(CCO)CCO)c12	–	0.00116 µM (active)	0.00698 µM (active)	0.00268 µM (active)	0.00246 µM (active)	0.00726 µM (active)	0.000774 µM (active)	0.00141 µM (active)	0.00731 µM (active)	0.0064 µM (active)	0.00367 µM (active)	0.00498 µM (active)	–	0.0397 µM (active)	0.00783 µM (active)	0.00361 µM (active)	0.00447 µM (active)	0.00121 µM (active)	0.00206 µM (active)	0.00537 µM (active)
CCOC(=O)c1cc2ncccc2c2ccccc12	> 100 µM (inactive)	> 100 µM (inactive)	> 100 µM (inactive)	> 100 µM (inactive)	> 100 µM (inactive)	> 100 µM (inactive)	–	> 100 µM (inactive)	> 100 µM (inactive)	> 100 µM (inactive)	> 100 µM (inactive)	> 100 µM (inactive)	> 100 µM (inactive)	> 100 µM (inactive)	> 100 µM (inactive)	> 100 µM (inactive)	> 100 µM (inactive)	> 100 µM (inactive)	> 100 µM (inactive)	> 100 µM (inactive)
CC(C)C(O)(C(C)C)C(C)C	> 100 µM (inactive)	> 100 µM (inactive)	> 100 µM (inactive)	> 100 µM (inactive)	> 100 µM (inactive)	> 100 µM (inactive)	–	> 100 µM (inactive)	> 100 µM (inactive)	> 100 µM (inactive)	> 100 µM (inactive)	> 100 µM (inactive)	> 100 µM (inactive)	> 100 µM (inactive)	> 100 µM (inactive)	> 100 µM (inactive)	> 100 µM (inactive)	> 100 µM (inactive)	> 100 µM (inactive)	> 100 µM (inactive)
NC(=O)C(=CNC(=S)Nc1ccccc1)C(N)=O	> 100 µM (inactive)	> 100 µM (inactive)	> 100 µM (inactive)	> 100 µM (inactive)	> 100 µM (inactive)	64.9 µM (inactive)	> 100 µM (inactive)	> 100 µM (inactive)	> 100 µM (inactive)	> 100 µM (inactive)	97.7 µM (inactive)	> 100 µM (inactive)	> 100 µM (inactive)	–	> 100 µM (inactive)	> 100 µM (inactive)	29.9 µM (inactive)	> 100 µM (inactive)	> 100 µM (inactive)	> 100 µM (inactive)
C=CCN1C(=O)N/C(=C\c2ccc(Cl)cc2)C1=O	> 100 µM (inactive)	87.7 µM (inactive)	> 100 µM (inactive)	> 100 µM (inactive)	> 100 µM (inactive)	> 100 µM (inactive)	> 100 µM (inactive)	> 100 µM (inactive)	93.8 µM (inactive)	> 100 µM (inactive)	> 100 µM (inactive)	> 100 µM (inactive)	> 100 µM (inactive)	–	> 100 µM (inactive)	> 100 µM (inactive)	> 100 µM (inactive)	> 100 µM (inactive)	> 100 µM (inactive)	> 100 µM (inactive)
CC(C)N1C=[N+](C(C)C)CC1	> 100 µM (inactive)	> 100 µM (inactive)	> 100 µM (inactive)	> 100 µM (inactive)	> 100 µM (inactive)	> 100 µM (inactive)	> 100 µM (inactive)	> 100 µM (inactive)	> 100 µM (inactive)	> 100 µM (inactive)	> 100 µM (inactive)	> 100 µM (inactive)	–	> 100 µM (inactive)	> 100 µM (inactive)	> 100 µM (inactive)	> 100 µM (inactive)	> 100 µM (inactive)	> 100 µM (inactive)	> 100 µM (inactive)
Cc1cc(S(=O)(=O)Nc2nc3ccccc3n2-c2ccccc2)c(S)cc1Cl	> 100 µM (inactive)	> 100 µM (inactive)	44.4 µM (inactive)	> 100 µM (inactive)	> 100 µM (inactive)	> 100 µM (inactive)	> 100 µM (inactive)	> 100 µM (inactive)	> 100 µM (inactive)	> 100 µM (inactive)	9.12 µM (inactive)	> 100 µM (inactive)	> 100 µM (inactive)	> 100 µM (inactive)	82.2 µM (inactive)	> 100 µM (inactive)	> 100 µM (inactive)	> 100 µM (inactive)	> 100 µM (inactive)	–
